# Measurements as given in patent publication US11564923B2, “Compounds and pharmaceutical compositions thereof for the treatment of inflammatory disorders” (Galapagos NV, priority 2017, dated 2023).
# pIC50: −log10 of the molar value.
# Target: T1, Recombinant human TYK2 catalytic domain (amino acids 871-1187) (Homo sapiens, UniProt P29597)
# T1 construct: catalytic domain (amino acids 871-1187)
# T1 sequence (P29597 871-1187): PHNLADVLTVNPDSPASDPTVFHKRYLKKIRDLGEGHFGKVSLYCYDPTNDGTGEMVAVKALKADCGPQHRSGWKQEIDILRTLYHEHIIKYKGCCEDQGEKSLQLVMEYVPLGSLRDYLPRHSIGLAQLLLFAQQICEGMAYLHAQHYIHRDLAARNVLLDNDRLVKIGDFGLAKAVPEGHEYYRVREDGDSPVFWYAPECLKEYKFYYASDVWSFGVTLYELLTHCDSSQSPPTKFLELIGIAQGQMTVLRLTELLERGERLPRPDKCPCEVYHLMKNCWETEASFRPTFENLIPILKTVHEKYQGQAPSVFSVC
# Test: TYK2 radioactive assay polyGT substrate; note: 0.1 µM ATP
# Assay type: biochemical
# Description: After 120 min at 30° C., reactions were stopped by adding 25 μL/well of 150 mM phosphoric acid. […] Plates were washed 6 times with 300 μL per well of a 75 mM phosphoric acid solution and the bottom of the plates is sealed. […] Kinase activity is calculated by subtracting counts per min (cpm) obtained in the presence of a positive control inhibitor (10 μM staurosporine) from cpm obtained in the presence of vehicle. The ability of a test compound to inhibit this activity (or percentage inhibition) is determined as: […]
# cpm test compound=cpm determined for sample with test compound present cpm control=cpm determined for sample with positive control inhibitor cpm vehicle=cpm determined in the presence of vehicle
# Dose dilution series were prepared for the compounds enabling the testing of dose-response effects in the TYK2 assay and the calculation of the IC50 for each compound. Each compound is routinely tested at concentration of 20 μM followed by a 1/5 serial dilution, 10 points in a final concentration of 1% DMSO.
row,Compound,pIC50
1,"COC1(C)CN(C(=O)c2ccc(Nc3cc(Oc4cnc(C#N)cc4C)nc4c3ncn4C)nc2)C1 [Compound 121, 5-[7-[[5-(3-methoxy-3-methyl-azetidine-1-carbonyl)-2-pyridyl]amino]-3-methyl-imidazo[4,5-b]pyridin-5-yl]oxy-4-methyl-pyridine-2-carbonitrile]",8.72
2,"Cc1cc(C#N)ncc1Oc1cc(Nc2ccc(N3CCN(C)CC3)cc2)c2ncn(C)c2n1 [Compound 110, 4-methyl-5-[3-methyl-7-[4-(4-methylpiperazin-1-yl)anilino]imidazo[4,5-b]pyridin-5-yl]oxy-pyridine-2-carbonitrile]",7.57
3,"Cc1cc(C#N)ncc1Oc1cc(Nc2ccc(C(=O)N3CCN(C(=O)OC(C)(C)C)CC3)cn2)c2ncn(C)c2n1 [Compound 128, 4-{6-[5-(6-Cyano-4-methyl-pyridin-3-yloxy)-3-methyl-3H-imidazo[4,5-b]pyridin-7-ylamino]-pyridine-3-carbonyl}-piperazine-1-carboxylic acid tert-butyl ester]",8.23
4,"Cc1cc(C#N)ncc1Oc1cc(Nc2ccc(C(=O)N3CC4(COC4)C3)cn2)c2ncn(C)c2n1 [Compound 134, 4-methyl-5-[3-methyl-7-[[5-(2-oxa-6-azaspiro[3.3]heptane-6-carbonyl)pyridin-2-yl]amino]imidazo[4,5-b]pyridin-5-yl]oxypyridine-2-carbonitrile]",8.68
5,"Cc1cc(C#N)ncc1Oc1cc(Nc2ccc(C(=O)N3CC[C@@H](O)C3)cn2)c2ncn(C)c2n1 [Compound 127, 5-[7-[[5-[(3R)-3-hydroxypyrrolidine-1-carbonyl]pyridin-2-yl]amino]-3-methylimidazo[4,5-b]pyridin-5-yl]oxy-4-methylpyridine-2-carbonitrile]",8.47
6,"Cc1cc(C#N)ncc1Oc1cc(Nc2ccc(C(=O)N3CC(CN(C)C)C3)cn2)c2ncn(C)c2n1 [Compound 132, 5-[7-[[5-[3-[(dimethylamino)methyl]azetidine-1-carbonyl]pyridin-2-yl]amino]-3-methylimidazo[4,5-b]pyridin-5-yl]oxy-4-methylpyridine-2-carbonitrile]",8.05
7,"Cc1cc(C#N)ncc1Oc1cc(Nc2ccc(C(=O)N3CCC4(COC4)C3)cn2)c2ncn(C)c2n1 [Compound 131, 4-methyl-5-[3-methyl-7-[[5-(2-oxa-7-azaspiro[3.4]octane-7-carbonyl)pyridin-2-yl]amino]imidazo[4,5-b]pyridin-5-yl]oxypyridine-2-carbonitrile]",8.54
8,"Cc1cc(C#N)ncc1Oc1cc(Nc2ccc(C(=O)N(C)C)c(C)n2)c2ncn(C)c2n1 [Compound 77, 6-[[5-[(6-cyano-4-methyl-3-pyridyl)oxy]-3-methyl-imidazo[4,5-b]pyridin-7-yl]amino]-N,N,2-trimethyl-pyridine-3-carboxamide]",8.53
9,"Cc1cc(C#N)ncc1Oc1cc(Nc2ccc(C(=O)N3CCC(O)CC3)cn2)c2ncn(C)c2n1 [Compound 124, 5-[7-[[5-(4-hydroxypiperidine-1-carbonyl)pyridin-2-yl]amino]-3-methylimidazo[4,5-b]pyridin-5-yl]oxy-4-methylpyridine-2-carbonitrile]",8.60
10,"COCCO[C@@H]1CCN(C(=O)c2ccc(Nc3cc(Oc4cnc(C#N)cc4C)nc4c3ncn4C)nc2)C1 [Compound 129, 5-[7-[[5-[(3R)-3-(2-methoxyethoxy)pyrrolidine-1-carbonyl]pyridin-2-yl]amino]-3-methylimidazo[4,5-b]pyridin-5-yl]oxy-4-methylpyridine-2-carbonitrile]",8.23
11,"Cc1cc(C#N)ncc1Oc1cc(Nc2ccc(N3CCOCC3)cc2)c2ncn(C)c2n1 [Compound 109, 4-methyl-5-[3-methyl-7-(4-morpholinoanilino)imidazo[4,5-b]pyridin-5-yl]oxy-pyridine-2-carbonitrile]",7.61
12,"Cc1cc(C#N)ncc1Oc1cc(Nc2ccc(C(=O)N3CCOCC3)nc2)c2ncn(C)c2n1 [Compound 28, 4-Methyl-5-{3-methyl-7-[6-(morpholine-4-carbonyl)-pyridin-3-ylamino]-3H-imidazo[4,5-b]pyridin-5-yloxy}-pyridine-2-carbonitrile]",7.57
13,"Cc1cc(C#N)ncc1Oc1cc(Nc2ccc(N3CCC(C#N)CC3)nn2)c2ncn(C)c2n1 [Compound 45, 5-{7-[6-(4-Cyano-piperidin-1-yl)-pyridazin-3-ylamino]-3-methyl-3H-imidazo[4,5-b]pyridin-5-yloxy}-4-methyl-pyridine-2-carbonitrile]",8.66
14,"CNC(=O)c1ccc(Nc2cc(Oc3cnc(C#N)cc3C)nc3c2ncn3C)cn1 [Compound 29, 5-[5-(6-Cyano-4-methyl-pyridin-3-yloxy)-3-methyl-3H-imidazo[4,5-b]pyridin-7-ylamino]-pyridine-2-carboxylic acid methylamide]",7.01
15,"Cc1cc(C#N)ncc1Oc1cc(Nc2ccc(C(=O)N3CC(C(=O)OC(C)(C)C)C3)cn2)c2ncn(C)c2n1 [Compound 122, tert-butyl 1-[6-[[5-[(6-cyano-4-methyl-3-pyridyl)oxy]-3-methyl-imidazo[4,5-b]pyridin-7-yl]amino]pyridine-3-carbonyl]azetidine-3-carboxylate]",8.52
16,"Cc1cc(C#N)ncc1Oc1cc(Nc2ccc(C(=O)N3CCC(N(C)C)CC3)cn2)c2ncn(C)c2n1 [Compound 126, 5-[7-[[5-[4-(dimethyalmino)piperidine-1-carbonyl]pyridin-2-yl]amino]-3-methylimidazo[4,5-b]pyridin-5-yl]oxy-4-methylpyridine-2-carbonitrile]",8.26
17,"Cc1cc(C#N)ncc1Oc1cc(Nc2ccc(C(=O)N3CC4(CN(C)C4)C3)cn2)c2ncn(C)c2n1 [Compound 123, 4-methyl-5-[3-methyl-7-[[5-(6-methyl-2,6-diazaspiro[3.3]heptane-2-carbonyl)-2-pyridyl]amino]imidazo[4,5-b]pyridin-5-yl]oxy-pyridine-2-carbonitrile]",8.03
18,"Cc1cc(C#N)ncc1Oc1cc(Nc2ccc(N3CCN(CC(F)(F)F)CC3)nn2)c2ncn(C)c2n1 [Compound 42, 4-Methyl-5-(3-methyl-7-{6-[4-(2,2,2-trifluoro-ethyl)-piperazin-1-yl]-pyridazin-3-ylamino}-3H-imidazo[4,5-b]pyridin-5-yloxy)-pyridine-2-carbonitrile]",8.56

# Second part, the compound after the results:
row,pIC50,Compound
1,8.54,"Cc1cc(C#N)ncc1Oc1cc(Nc2ccc(C(=O)N3C[C@@H](O)[C@H](F)C3)cn2)c2ncn(C)c2n1 (racemic) [Compound 140, 4-methyl-5-[3-methyl-7-[[5-[rac-(3R,4R)-3-fluroo-4-hydroxypyrrolidine-1-carbonyl]pyridin-2-yl]amino]imidazo[4,5-b]pyridin-5-yl]oxypyridine-2-carbonitrile]"
2,8.34,"Cc1cc(C#N)ncc1Oc1cc(Nc2ccc(N3CC(N(C)C)C3)nn2)c2ncn(C)c2n1 [Compound 143, 5-[7-[[6-[3-(dimethylamino)azetidin-1-yl]pyridazin-3-yl]amino]-3-methylimidazo[4,5-b]pyridin-5-yl]oxy-4-methylpyridine-2-carbonitrile]"
3,8.69,"Cc1cc(C#N)ncc1Oc1cc(Nc2ccc(C(=O)N3CCOCC3C#N)cn2)c2ncn(C)c2n1 (centres unmarked) [Compound 162, 4-[6-[[5-(6-cyano-4-methylpyridin-3-yl)oxy-3-methylimidazo[4,5-b]pyridin-7-yl]amino]pyridine-3-carbonyl]morpholine-3-carbonitrile]"
4,8.99,"Cc1cc(C#N)ncc1Oc1cc(Nc2ccc(C(=O)N3CCOCC3C3CC3)cn2)c2ncn(C)c2n1 (centres unmarked) [Compound 159, 5-[7-[[5-(3-cyclopropylmorpholine-4-carbonyl)pyridin-2-yl]amino]-3-methylimidazo[4,5-b]pyridin-5-yl]oxy-4-methylpyridine-2-carbonitrile]"
5,8.68,"Cc1cc(C#N)ncc1Oc1cc(Nc2ccc(C(=O)N3CC(CO)(CO)C3)cn2)c2ncn(C)c2n1 [Compound 135, 5-[7-[[5-[3,3-bis(hydroxymethyl)azetidine-1-carbonyl]pyridin-2-yl]amino]-3-methylimidazo[4,5-b]pyridin-5-yl]oxy-4-methylpyridine-2-carbonitrile]"
6,8.86,"Cc1cc(C#N)ncc1Oc1cc(Nc2ccc(C(=O)N3CCOC(C#N)C3)cn2)c2ncn(C)c2n1 (centres unmarked) [Compound 160, 4-[6-[[5-(6-cyano-4-methylpyridin-3-yl)oxy-3-methylimidazo[4,5-b]pyridin-7-yl]amino]pyridine-3-carbonyl]morpholine-2-carbonitrile]"
7,7.90,"Cc1cc(C#N)ncc1Oc1cc(Nc2ccc(N3C[C@H]4C[C@@H]3CN4C)nn2)c2ncn(C)c2n1 [Compound 152, 4-methyl-5-[3-methyl-7-[[6-[(1R,4R)-5-methyl-2,5-diazabicyclo[2.2.1]heptan-2-yl]pyridazin-3-yl]amino]imidazo[4,5-b]pyridin-5-yl]oxypyridine-2-carbonitrile]"
8,8.76,"Cc1cc(C#N)ncc1Oc1cc(Nc2ccc(C(=O)N3CCOC(C4CC4)C3)cn2)c2ncn(C)c2n1 (centres unmarked) [Compound 156, 5-[7-[[5-(2-cyclopropylmorpholine-4-carbonyl)pyridin-2-yl]amino]-3-methylimidazo[4,5-b]pyridin-5-yl]oxy-4-methylpyridine-2-carbonitrile]"
